Measured values from patent US12540164B2, “Peptides for treatment and prevention of nonalcoholic fatty liver disease and fibrosis” (UNIVERSITE DE STRASBOURG, priority 2017, dated 2026).
Entries after “also recorded” stand apart in the source; their conditions may differ. Ends that are not written are not given here.

Assays:
LOXL2 = assay: Immunostaining of liver cryosections for LOXL2 (DIO-NASH); format: in vivo; settings: DIO-NASH mice, 3 months after injection in subcutaneous adipose tissue; vs untreated
Procedure: For immunofluorescence experiments, liver and kidneys freshly sampled were included in Optimal Cutting Temperature Compound™ (OCT™, Catalog #4583, Tissue-Tek® OCT™, Sakura® Finetek, Torrance, California, USA) and cryosections of 7 μm were cut with Cryostat Leica CM1950. Cryosections were washed with 1×PBS and fixated in 4% formaldehyde solution for 15 min (Catalog #: F555-4L, Sigma-Aldrich, Saint-Louis, Missouri, USA) and then permeabilized with 0.02% SDS-PBS for 30 seconds. Blocking solution was 5%-Bovine Serum Albumin (BSA) in PBS. Primary antibodies were diluted in blocking solution and incubated overnight and indicated secondary antibodies were diluted in PBS for 30 minutes. Nuclei were counterstained with Hoechst (Catalog #: D1306, Invitrogen, Carlsbad, California, USA). Slides were then mounted with Vectashield® Mounting Medium (Catalog #: H-1000, Vector Laboratories, Burlingame, California, USA). Images were acquired and analyzed with Zeiss Imager.Z2 microscope equipped with either Zeiss AxioVision or Zeiss ZEN 2012 software (Carl Zeiss Inc., Oberkochen, Germany). Anti-Collagen IV antibody, ab6586 from Abcam and LOXL2 antibody, GTX105085 from GeneTex were used.

[1] = Glucose tolerance test (GTT) in diet induced obese mice; format: in vivo; settings: fasting male DIO mice, single injection at day 0; subcutaneous glucose bolus; AUC D-5 vs D+6
Procedure: These are results obtained from series of glucose tolerance test (GTT) and data from two-time points namely 30 minutes and 120 minutes were used to generate these curves for both control and PATAD treated diet induced obese (DIO) and diabetic wild type male C57/B6 mice (control).
For this study, mice were on a C57/BL6 genetic background. All animals were housed in a temperature and humidity controlled facility, with a 12 h-light/12 h-dark cycle fed during the whole phase mice will be fed with a 60% high fat diet from Research Diets (D12492), and tap water will be provided ad libitum. Mice were fed and tested regularly for glucose tolerance test for their glucose tolerance and once they were glucose intolerant they were used for treatment.

For “VECTTREKEVLASLDKAAFLTQLHS (not fully specified (bridges)) [ADPIF, R and S carry the stapling, preferably 2-(7-octenyl)arginine and 2-(4-pentenyl)serine]”, the “LOXL2 expression in liver (immunostaining)” value (LOXL2) was “effective in preventing the progression of fibrotic markers; also recorded: reduced” and the “glucose tolerance test / prevention of hyperglycemia” value [1] was “better effect in glucose tolerance test than the PATAD peptide; also recorded: more active than PATAD peptide in preventing hyperglycemia”.
